Test [1] concerns the target T1, Ephrin type-B receptor 4 (Homo sapiens, UniProt P54760).
T1 sequence (P54760 whole entry): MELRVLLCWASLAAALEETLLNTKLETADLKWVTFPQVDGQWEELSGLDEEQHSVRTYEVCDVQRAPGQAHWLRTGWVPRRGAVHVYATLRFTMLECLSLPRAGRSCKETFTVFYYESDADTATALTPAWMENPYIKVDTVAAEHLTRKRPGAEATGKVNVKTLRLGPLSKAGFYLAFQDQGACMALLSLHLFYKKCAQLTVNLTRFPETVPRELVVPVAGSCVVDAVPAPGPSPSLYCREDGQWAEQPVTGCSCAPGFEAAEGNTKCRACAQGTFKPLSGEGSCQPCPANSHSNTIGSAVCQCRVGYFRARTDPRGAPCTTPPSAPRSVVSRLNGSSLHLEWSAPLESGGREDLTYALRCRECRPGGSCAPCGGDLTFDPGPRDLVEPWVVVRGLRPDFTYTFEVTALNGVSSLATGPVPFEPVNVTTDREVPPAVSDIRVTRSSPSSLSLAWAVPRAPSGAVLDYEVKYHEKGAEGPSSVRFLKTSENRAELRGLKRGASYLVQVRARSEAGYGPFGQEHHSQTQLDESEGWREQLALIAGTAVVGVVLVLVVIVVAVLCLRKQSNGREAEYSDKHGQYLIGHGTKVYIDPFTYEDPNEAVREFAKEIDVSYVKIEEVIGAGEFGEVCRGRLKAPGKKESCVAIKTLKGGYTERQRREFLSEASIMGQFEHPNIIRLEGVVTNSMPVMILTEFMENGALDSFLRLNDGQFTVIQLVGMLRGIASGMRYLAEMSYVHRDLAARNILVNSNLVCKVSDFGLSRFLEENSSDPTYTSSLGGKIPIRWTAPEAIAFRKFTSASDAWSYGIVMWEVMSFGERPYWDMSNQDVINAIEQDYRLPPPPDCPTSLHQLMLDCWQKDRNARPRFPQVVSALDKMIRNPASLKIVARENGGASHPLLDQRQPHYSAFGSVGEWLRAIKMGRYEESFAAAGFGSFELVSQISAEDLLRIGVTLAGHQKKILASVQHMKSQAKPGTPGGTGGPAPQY
Description: Inhibition of recombinant human N-terminal His6-tagged EphB4 kinase domain (E605 to E890 residues) expressed in baculovirus using poly-AEKY as substrate after 150 mins in presence of gamma33P-ATP by liquid scintillation spectrometry.

Test [2] has as its target Vascular endothelial growth factor receptor 2 (Homo sapiens, UniProt P35968). Put plainly: Inhibition of recombinant human N-terminal GST-fused KDR (D807 to V1356 residues) expressed in baculovirus infected […] insect Sf9 cells using poly-EY as substrate after 240 mins by luciferase coupled chemiluminescence assay.
In test [3] the target is Ephrin type-A receptor 2 (Homo sapiens, UniProt P29317). Put plainly: Inhibition of recombinant human N-terminal His6-tagged EphA2 (N598 to R890 residues) expressed in baculovirus using poly-EY as substrate after 180 mins by luciferase coupled chemiluminescence assay.
Chain of Ephrin type-A receptor 2 (P29317 whole entry, the tested form may be a part): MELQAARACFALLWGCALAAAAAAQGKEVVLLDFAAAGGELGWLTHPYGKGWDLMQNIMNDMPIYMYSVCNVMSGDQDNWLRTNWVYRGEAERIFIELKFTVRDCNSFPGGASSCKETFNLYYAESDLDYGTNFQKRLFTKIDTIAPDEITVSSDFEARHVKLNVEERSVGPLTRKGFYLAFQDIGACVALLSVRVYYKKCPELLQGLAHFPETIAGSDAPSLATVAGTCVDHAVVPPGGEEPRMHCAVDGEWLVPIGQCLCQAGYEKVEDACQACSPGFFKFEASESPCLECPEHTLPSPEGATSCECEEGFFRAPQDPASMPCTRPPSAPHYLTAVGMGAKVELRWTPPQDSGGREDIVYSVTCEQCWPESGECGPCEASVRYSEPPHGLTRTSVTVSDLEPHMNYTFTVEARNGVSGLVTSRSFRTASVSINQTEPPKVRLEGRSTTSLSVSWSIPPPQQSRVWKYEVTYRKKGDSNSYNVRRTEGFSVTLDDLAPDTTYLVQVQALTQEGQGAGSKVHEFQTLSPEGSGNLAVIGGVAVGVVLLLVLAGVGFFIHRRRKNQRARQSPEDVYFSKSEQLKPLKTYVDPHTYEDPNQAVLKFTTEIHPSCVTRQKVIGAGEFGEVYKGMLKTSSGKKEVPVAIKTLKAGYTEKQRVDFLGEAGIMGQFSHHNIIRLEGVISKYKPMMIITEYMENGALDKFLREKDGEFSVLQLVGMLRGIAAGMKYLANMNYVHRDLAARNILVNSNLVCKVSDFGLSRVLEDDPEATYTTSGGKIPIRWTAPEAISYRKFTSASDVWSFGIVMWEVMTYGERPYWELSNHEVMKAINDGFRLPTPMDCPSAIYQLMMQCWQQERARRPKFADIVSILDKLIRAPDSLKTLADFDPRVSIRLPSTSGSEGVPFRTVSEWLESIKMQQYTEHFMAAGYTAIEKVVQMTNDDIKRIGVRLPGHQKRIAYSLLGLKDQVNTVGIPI
The target in test [4] is Receptor tyrosine-protein kinase erbB-2 (Homo sapiens, UniProt P04626). Description: Inhibition of recombinant human N-terminal GST His6-tagged thrombin cleavage site-fused ErbB2 kinase domain (Q679 to V1255 residues) expressed in baculovirus infected insect Sf9 cells using biotinylated poly-EY as substrate after 60 mins by alphascreen assay.
Chain of Receptor tyrosine-protein kinase erbB-2 (P04626 whole entry, the tested form may be a part): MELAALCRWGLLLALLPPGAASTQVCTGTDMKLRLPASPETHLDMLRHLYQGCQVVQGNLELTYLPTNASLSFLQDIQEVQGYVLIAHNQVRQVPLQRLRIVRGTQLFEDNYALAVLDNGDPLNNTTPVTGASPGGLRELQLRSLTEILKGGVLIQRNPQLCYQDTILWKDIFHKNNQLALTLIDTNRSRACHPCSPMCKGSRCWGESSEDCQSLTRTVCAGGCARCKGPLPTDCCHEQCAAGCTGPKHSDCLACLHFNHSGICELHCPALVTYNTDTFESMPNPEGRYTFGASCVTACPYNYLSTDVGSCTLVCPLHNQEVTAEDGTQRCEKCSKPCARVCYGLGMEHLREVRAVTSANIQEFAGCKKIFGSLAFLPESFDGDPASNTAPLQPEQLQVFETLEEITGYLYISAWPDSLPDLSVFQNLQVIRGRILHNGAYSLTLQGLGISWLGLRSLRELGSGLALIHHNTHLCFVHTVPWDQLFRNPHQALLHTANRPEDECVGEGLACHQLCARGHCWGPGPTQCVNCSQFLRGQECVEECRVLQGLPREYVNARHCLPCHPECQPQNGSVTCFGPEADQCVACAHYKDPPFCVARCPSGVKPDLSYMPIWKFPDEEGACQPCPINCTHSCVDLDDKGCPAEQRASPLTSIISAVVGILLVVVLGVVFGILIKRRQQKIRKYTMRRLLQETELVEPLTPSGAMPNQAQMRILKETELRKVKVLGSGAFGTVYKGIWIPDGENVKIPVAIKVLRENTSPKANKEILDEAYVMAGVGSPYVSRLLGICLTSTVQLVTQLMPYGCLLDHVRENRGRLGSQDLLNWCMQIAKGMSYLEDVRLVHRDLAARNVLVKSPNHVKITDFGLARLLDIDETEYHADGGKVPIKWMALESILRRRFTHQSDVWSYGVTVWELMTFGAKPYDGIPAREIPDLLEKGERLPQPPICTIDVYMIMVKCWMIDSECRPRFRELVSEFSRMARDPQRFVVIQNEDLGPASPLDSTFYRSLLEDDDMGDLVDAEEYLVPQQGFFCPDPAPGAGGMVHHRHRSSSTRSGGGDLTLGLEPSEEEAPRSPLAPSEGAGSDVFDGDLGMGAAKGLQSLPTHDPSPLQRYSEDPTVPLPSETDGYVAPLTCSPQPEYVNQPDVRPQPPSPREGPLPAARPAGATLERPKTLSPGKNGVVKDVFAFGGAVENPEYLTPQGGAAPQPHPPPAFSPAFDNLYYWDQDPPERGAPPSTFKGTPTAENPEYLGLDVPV
For test [5], the target named is Vascular endothelial growth factor receptor 1 (Homo sapiens, UniProt P17948). Put plainly: Inhibition of recombinant human N-terminal GST-tagged factor 10a cleavage site-fused Flt1 (K784 to I1338 residues) expressed in baculovirus infected insect Sf9 cells using poly-EY as substrate after 120 mins in presence of gamma33P-ATP by liquid scintillation spectrometry.
Chain of Vascular endothelial growth factor receptor 1 (P17948 whole entry, the tested form may be a part): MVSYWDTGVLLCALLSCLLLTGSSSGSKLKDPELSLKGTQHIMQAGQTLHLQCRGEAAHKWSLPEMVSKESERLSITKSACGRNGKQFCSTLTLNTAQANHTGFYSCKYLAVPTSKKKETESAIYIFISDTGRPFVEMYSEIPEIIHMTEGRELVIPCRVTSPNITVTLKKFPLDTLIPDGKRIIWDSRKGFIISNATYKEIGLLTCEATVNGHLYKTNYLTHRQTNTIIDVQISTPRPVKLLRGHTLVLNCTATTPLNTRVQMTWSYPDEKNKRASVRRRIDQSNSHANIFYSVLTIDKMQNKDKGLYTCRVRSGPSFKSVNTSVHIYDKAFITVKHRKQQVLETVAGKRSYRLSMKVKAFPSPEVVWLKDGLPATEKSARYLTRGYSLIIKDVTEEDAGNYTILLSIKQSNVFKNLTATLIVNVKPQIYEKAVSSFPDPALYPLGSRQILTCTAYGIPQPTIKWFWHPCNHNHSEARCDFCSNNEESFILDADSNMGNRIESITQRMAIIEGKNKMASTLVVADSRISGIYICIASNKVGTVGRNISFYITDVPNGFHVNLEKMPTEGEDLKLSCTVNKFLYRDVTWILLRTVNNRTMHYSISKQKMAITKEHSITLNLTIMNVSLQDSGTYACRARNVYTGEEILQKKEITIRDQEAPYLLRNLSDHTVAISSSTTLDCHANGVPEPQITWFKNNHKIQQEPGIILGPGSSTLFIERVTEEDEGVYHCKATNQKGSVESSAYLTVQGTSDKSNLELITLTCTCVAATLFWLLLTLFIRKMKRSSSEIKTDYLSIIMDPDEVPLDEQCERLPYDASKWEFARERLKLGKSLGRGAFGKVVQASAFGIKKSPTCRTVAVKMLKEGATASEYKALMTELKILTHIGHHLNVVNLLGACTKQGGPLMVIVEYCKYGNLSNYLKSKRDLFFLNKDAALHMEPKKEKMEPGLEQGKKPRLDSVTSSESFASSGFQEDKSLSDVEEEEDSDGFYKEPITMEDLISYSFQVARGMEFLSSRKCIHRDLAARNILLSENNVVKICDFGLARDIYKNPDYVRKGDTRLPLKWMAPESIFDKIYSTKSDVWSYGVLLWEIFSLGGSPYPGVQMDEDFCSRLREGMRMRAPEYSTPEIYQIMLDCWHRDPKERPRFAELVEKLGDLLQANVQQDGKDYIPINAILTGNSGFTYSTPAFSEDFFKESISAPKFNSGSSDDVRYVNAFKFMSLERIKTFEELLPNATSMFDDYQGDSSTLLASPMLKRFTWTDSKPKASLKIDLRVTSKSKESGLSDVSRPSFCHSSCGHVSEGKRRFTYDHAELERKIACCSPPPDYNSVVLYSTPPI

The structures appear in SMILES notation. Where only a bound is given, the exact number is not on record here.

Chain of Vascular endothelial growth factor receptor 2 (P35968 whole entry, the tested form may be a part): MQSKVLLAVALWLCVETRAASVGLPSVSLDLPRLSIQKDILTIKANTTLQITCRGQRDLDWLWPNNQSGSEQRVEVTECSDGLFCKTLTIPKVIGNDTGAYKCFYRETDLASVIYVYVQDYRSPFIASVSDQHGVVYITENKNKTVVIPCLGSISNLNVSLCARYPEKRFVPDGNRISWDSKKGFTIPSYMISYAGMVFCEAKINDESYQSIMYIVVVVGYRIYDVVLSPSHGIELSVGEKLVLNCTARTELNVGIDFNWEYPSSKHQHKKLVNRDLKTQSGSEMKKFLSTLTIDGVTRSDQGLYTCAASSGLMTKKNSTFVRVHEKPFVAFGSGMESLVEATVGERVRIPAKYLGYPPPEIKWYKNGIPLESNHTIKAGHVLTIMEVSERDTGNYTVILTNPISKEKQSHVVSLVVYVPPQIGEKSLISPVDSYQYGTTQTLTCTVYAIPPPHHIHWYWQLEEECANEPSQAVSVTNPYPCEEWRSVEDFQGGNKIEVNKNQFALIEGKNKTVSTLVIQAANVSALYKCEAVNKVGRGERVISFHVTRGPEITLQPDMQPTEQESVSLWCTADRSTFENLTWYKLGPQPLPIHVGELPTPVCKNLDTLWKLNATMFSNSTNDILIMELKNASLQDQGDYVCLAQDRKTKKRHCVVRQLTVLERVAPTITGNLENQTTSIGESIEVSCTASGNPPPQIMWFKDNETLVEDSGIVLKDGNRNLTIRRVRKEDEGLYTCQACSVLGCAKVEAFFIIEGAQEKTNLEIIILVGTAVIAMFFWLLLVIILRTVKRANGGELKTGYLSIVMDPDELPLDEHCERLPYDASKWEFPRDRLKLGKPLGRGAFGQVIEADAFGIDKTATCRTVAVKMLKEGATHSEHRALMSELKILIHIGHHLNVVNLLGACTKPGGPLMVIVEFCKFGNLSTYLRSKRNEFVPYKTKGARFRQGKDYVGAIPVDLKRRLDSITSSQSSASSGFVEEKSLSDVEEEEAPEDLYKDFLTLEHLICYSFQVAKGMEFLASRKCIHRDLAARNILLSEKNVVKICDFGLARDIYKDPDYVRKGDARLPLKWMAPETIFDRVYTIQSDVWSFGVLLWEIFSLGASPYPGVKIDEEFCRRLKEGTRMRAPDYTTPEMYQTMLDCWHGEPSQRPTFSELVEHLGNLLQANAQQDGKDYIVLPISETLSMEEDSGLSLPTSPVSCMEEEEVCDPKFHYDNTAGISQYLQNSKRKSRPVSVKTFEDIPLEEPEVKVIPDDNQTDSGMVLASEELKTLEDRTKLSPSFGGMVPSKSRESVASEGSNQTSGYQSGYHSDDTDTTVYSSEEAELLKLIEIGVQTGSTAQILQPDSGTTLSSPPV

As to `COc1cc2c(Nc3ccc(Br)c(Cl)c3F)ncnc2cc1OC[C@@H]1CN(C)CC(=O)N1C`, the IC50 in test [1] was 0.05 to 1 µM; in test [2] it was 0.05 to 1 µM; in test [3], 0.05 to 1 µM; in test [4] it was 1 to 20 µM.
With `COc1cc2c(Nc3ccc(N4CCN(C)CC4)c(Cl)c3Cl)ncnc2cc1O[C@H]1CO[C@H]2[C@@H]1OC[C@@H]2F`, the IC50 in test [1], in test [2], in test [3] and in test [4] was 1 to 20 µM throughout.
As for `COc1cc2c(Nc3ccc(Br)c(Cl)c3)ncnc2cc1O[C@H]1CO[C@H]2[C@@H]1OC[C@@H]2O`, the IC50 fell in the range of 0.05 to 1 µM in test [1], 1 to 20 µM in test [2], 1 to 20 µM in test [3] and 0.05 to 1 µM in test [4].
For `COc1cc2c(Nc3ccc(Cl)c(Cl)c3F)ncnc2cc1OC[C@@H]1CN2CCOC[C@H]2CO1`, the IC50 in test [1], in test [2], in test [3], in test [4] and in test [5] was under 0.05 µM in each case.
With `COc1cc2c(Nc3ccc(Br)c(Cl)c3)ncnc2cc1O[C@H]1CO[C@H]2[C@@H]1OC[C@@H]2S(C)(=O)=O`, the IC50 lay within 0.05 to 1 µM in test [1], 1 to 20 µM in test [2], 1 to 20 µM in test [3] and 0.05 to 1 µM in test [4].
`CCN(CC)[C@H]1CO[C@H]2[C@@H]1OC[C@@H]2Oc1cc2ncnc(Nc3ccc(Br)c(Cl)c3)c2cc1OC`: the IC50 is 0.05 to 1 µM in test [1], 0.05 to 1 µM in test [2], 1 to 20 µM in test [3] and 1 to 20 µM in test [4].
Regarding `COc1cc2c(Nc3ccc(Cl)c(Cl)c3F)ncnc2cc1OC[C@@H]1CN(C)CC(=O)N1C`, the IC50 was 0.05 to 1 µM in test [1], 0.05 to 1 µM in test [2], 0.05 to 1 µM in test [3] and 1 to 20 µM in test [4].
Turning to `COc1cc2c(Nc3ccc(Cl)c(Cl)c3)ncnc2cc1OCC1CN2CSC[C@H]2CO1` (some centres undefined), the IC50 in test [2], in test [3] and in test [5] was 0.05 to 1 µM in each case.
On to `COc1cc2c(Nc3ccc(Br)c(Cl)c3)ncnc2cc1O[C@H]1CO[C@H]2[C@@H]1OC[C@@H]2N1CCOCC1`, for which the 50% inhibitory concentration (IC50) in test [1] was in the range of 0.05 to 1 µM; in test [2], 1 to 20 µM; in test [3] it was 1 to 20 µM; in test [4], 1 to 20 µM.
Consider `COc1cc2c(Nc3ccc(Br)c(Cl)c3)ncnc2cc1O[C@H]1CO[C@H]2[C@@H]1OC[C@@H]2N1CCCC1`, for which the IC50 in test [1] is 0.05 to 1 µM; in test [2], 1 to 20 µM; in test [3], 1 to 20 µM; in test [4] it was 1 to 20 µM.
As to `COc1cc2c(Nc3ccc(N4CCN(C)CC4)cc3)ncnc2cc1O[C@H]1CO[C@H]2[C@@H]1OC[C@@H]2F`, the IC50 in test [1], in test [2], in test [3] and in test [4] was 1 to 20 µM each time.
Turning to `COc1cc2c(Nc3ccc(Br)c(Cl)c3)ncnc2cc1O[C@H]1CO[C@H]2[C@@H]1OC[C@@H]2N1CCCCC1`, the IC50 in test [1] fell in the range of 0.05 to 1 µM; in test [2] it was 1 to 20 µM; in test [3] it was 1 to 20 µM; in test [4], 1 to 20 µM.
`COc1cc2c(Nc3ccc(Br)c(Cl)c3)ncnc2cc1O[C@H]1CO[C@H]2[C@@H]1OC[C@@H]2OC(C)=O`: the IC50 is 0.05 to 1 µM in test [1], 1 to 20 µM in test [2], 1 to 20 µM in test [3] and 1 to 20 µM in test [4].
Regarding `COc1cc2c(Nc3ccc(Br)c(Cl)c3Cl)ncnc2cc1OC[C@@H]1CO[C@H]2[C@@H]1OC[C@@H]2OC`, the IC50 in test [4] and in test [5] was 1 to 20 µM in each case.
Take `COc1cc2c(Nc3ccc(Br)c(Cl)c3)ncnc2cc1O[C@@H]1CCOC1`: the IC50 in test [1] lay within 0.05 to 1 µM; in test [2], 0.05 to 1 µM; in test [3], 1 to 20 µM; in test [4], 0.05 to 1 µM.
Take `COc1cc2c(Nc3ccc(Br)c(Cl)c3)ncnc2cc1O[C@@H]1CO[C@H]2[C@@H]1OC[C@@H]2NS(C)(=O)=O`: the IC50 was 0.05 to 1 µM in test [1], 1 to 20 µM in test [2], 1 to 20 µM in test [3] and 0.05 to 1 µM in test [4].
As to `COc1cc2c(Nc3ccc(Br)c(Cl)c3)ncnc2cc1O[C@@H]1CO[C@H]2[C@@H]1OC[C@@H]2O`, the IC50 in test [1] is 0.05 to 1 µM; in test [2], 1 to 20 µM; in test [3], 1 to 20 µM; in test [4] it was 0.05 to 1 µM.
Take `COc1cc2c(Nc3ccc(Cl)c(Cl)c3F)ncnc2cc1OC[C@@H]1CN2CCC[C@@H]2C(=O)N1`: the figures for the IC50 in test [2], in test [3] and in test [5] were under 0.05 µM, under 0.05 µM and 0.05 to 1 µM, respectively.
With `COc1cc2c(Nc3ccc(Br)c(Cl)c3)ncnc2cc1O[C@H]1CO[C@H]2[C@@H]1OC[C@@H]2SC`, the IC50 is 0.05 to 1 µM in test [1], 1 to 20 µM in test [2], 1 to 20 µM in test [3] and 1 to 20 µM in test [4].
`COc1cc2c(Nc3ccc(Cl)c(Cl)c3F)ncnc2cc1OC[C@@H]1CN2CCC[C@H]2C(=O)N1`: the results for the IC50 in test [2], in test [3] and in test [5] were under 0.05 µM, 0.05 to 1 µM and 0.05 to 1 µM, respectively.
`COc1cc2c(Nc3ccc(F)c(Cl)c3F)ncnc2cc1OC[C@H]1CN2CCOC[C@H]2CO1`: the concentration for half-maximal inhibition (IC50) in test [1], in test [2], in test [3], in test [4] and in test [5] was 0.05 to 1 µM in each case.
Take `COc1cc2c(Nc3cc(Cl)c(Br)cc3F)ncnc2cc1OC[C@H]1CN2CCOC[C@H]2CO1`: the IC50 in test [1], in test [2], in test [3], in test [4] and in test [5] was 0.05 to 1 µM each time.
Turning to `COc1cc2c(Nc3ccc(Br)c(Cl)c3)ncnc2cc1O[C@H]1CO[C@H]2[C@@H]1OC[C@@H]2NC(C)=O`, the IC50 in test [1] lay in the range of 0.05 to 1 µM; in test [2] it was 1 to 20 µM; in test [3], 1 to 20 µM; in test [4], 1 to 20 µM.
As to `COc1cc2c(Nc3ccc(Br)c(Cl)c3)ncnc2cc1OC1CCN(C)C1` (centres undefined), the IC50 in test [1] lay within 0.05 to 1 µM; in test [2], 0.05 to 1 µM; in test [3], 1 to 20 µM; in test [4] it was 1 to 20 µM.
With `COc1cc2c(Nc3ccc(Br)c(Cl)c3)ncnc2cc1O[C@H]1CO[C@H]2[C@@H]1OC[C@@H]2N1CCN(C)CC1`, the IC50 is 0.05 to 1 µM in test [1], 1 to 20 µM in test [2], 1 to 20 µM in test [3] and 1 to 20 µM in test [4].
On to `CN[C@H]1CO[C@H]2[C@@H]1OC[C@@H]2Oc1cc2ncnc(Nc3ccc(Br)c(Cl)c3)c2cc1OC`, for which the IC50 in test [1] was in the range of 0.05 to 1 µM; in test [2], 1 to 20 µM; in test [3], 1 to 20 µM; in test [4] it was 1 to 20 µM.
In the case of `COc1cc2c(Nc3ccc(Br)c(Cl)c3)ncnc2cc1O[C@H]1CO[C@H]2[C@@H]1OC[C@@H]2N`, the IC50 was in the range of 0.05 to 1 µM in test [1], 1 to 20 µM in test [2], 1 to 20 µM in test [3] and 1 to 20 µM in test [4].
Regarding `COc1cc2c(Nc3cc(Cl)c(Cl)cc3F)ncnc2cc1OC[C@H]1CN2CCOC[C@H]2CO1`, the IC50 in test [1], in test [2], in test [3], in test [4] and in test [5] was 0.05 to 1 µM each time.
As to `COc1cc2c(Nc3ccc(Cl)c(Cl)c3N3CCN(C)CC3)ncnc2cc1O[C@H]1CO[C@H]2[C@@H]1OC[C@@H]2F`, the IC50 in test [1], in test [2], in test [3] and in test [4] was 1 to 20 µM in each case.
As for `COc1cc2c(Nc3ccc(Br)c(Cl)c3)ncnc2cc1O[C@@H]1CO[C@H]2[C@@H]1OC[C@@H]2OS(C)(=O)=O`, the half-maximal inhibitory concentration (IC50) in test [1], in test [2], in test [3] and in test [4] was 1 to 20 µM each time.

The values above are taken from ChEMBL document CHEMBL3882729, “Receptor-type kinase modulators and methods of use” (2009).
